Measurements as given in ChEMBL document CHEMBL5150014, “Discovery and Development of Dolastatin 10-Derived Antibody Drug Conjugate Anticancer Drugs” (J Nat Prod, 2022).
pIC50: −log10 of the molar value. Non-standard residues stand in square brackets, D forms with d. Residues, ends and D or L forms follow the SMILES beside them. *: point of attachment. NMeVal(N-(CH2)3COOH) = CC(C)[C@@H](C(=O)*)N(C)CCCC(=O)O; Dolaproine = CO[C@@H]([C@@H]1CCCN1)[C@@H](C)C(=O)O; Abu(3S-N3) = C[C@H](N=[N+]=[N-])[C@H](N)C(=O)O; Dil = CC[C@H](C)[C@H](NC)[C@@H](CC(=O)O)OC; Phe(2-F) = N[C@@H](Cc1ccccc1F)C(=O)O; NMe2Val = CC(C)[C@@H](C(=O)*)N(C)C; Oxazinan2yl(1,2) = C1CCN(*)OC1; NMeV = CN[C@H](C(=O)O)C(C)C

Legend:
[1] = tested on: SK-BR-3; test: Cytotoxicity against human SK-BR-3 cells assessed as cell growth inhibition incubated for 72 hrs by CellTiter-Glo assay; format: functional
[2] = tested on: BT-474; test: Anticancer activity against human BT-474 assessed as cell growth inhibition incubated for 4 days by WST-8 assay; format: functional; settings: BT-474, 96 h, time 4 day
[3] = tested on: HT-29; test: Cytotoxicity against human HT-29 cells assessed as cell growth inhibition; format: functional, cell-based
[4] = tested on: KARPAS-299; test: Cytotoxicity against human KARPAS-299 cells assessed as reduction in cell viability incubated for 5 days by Presto blue dye based assay; format: functional; settings: KARPAS-299, 120 h
[5] = tested on: Panel NCI-60 (60 carcinoma cell lines); test: Cytotoxicity against human Panel NCI-60 (60 carcinoma cell lines) assessed as cell growth inhibition; format: functional, cell-based
[6] = tested on: H3396; test: Cytotoxicity against human H3396 cells assessed as cell growth inhibition measured after 96 hrs by resazurin dye based assay; format: functional
[7] = tested on: HCT-116; test: Cytotoxicity against human HCT-116 cells assessed as cell growth inhibition measured after 96 hrs by resazurin dye based assay; format: functional
[8] = biological target: Tubulin; test: Inhibition of tubulin (unknown origin) polymerization assessed as reduction in microtubule formation measured for 20 mins by spectrophotometric analysis; format: protein-complex assay, Homo sapiens

**Q.** CC[C@H](C)[C@@H]([C@@H](CC(=O)N1C[C@@H](F)C[C@H]1[C@H](OC)[C@@H](C)C(=O)N[C@@H](Cc1ccccc1)C(=O)O)OC)N(C)C(=O)[C@@H](NC(=O)[C@@H](NC)C(C)C)C(C)C (HELM PEPTIDE1{[meV].V.[CC[C@H](C)[C@@H]([C@@H](CC(=O)[*:2])OC)N(C)[*:1]].[CO[C@H]([C@@H](C)C(=O)[*:2])[C@@H]1C[C@H](F)CN1[*:1]].F}$$$$V2.0) was tested. Which GI50 [1] did it give?
**A.** 81.7 nM

**Q.** CC[C@H](C)[C@@H]([C@@H](CC(=O)N1C[C@H](O)C[C@H]1[C@H](OC)[C@@H](C)C(=O)NCCc1ccccc1)OC)N(C)C(=O)[C@@H](NC(=O)[C@H](C(C)C)N(C)C)C(C)C was tested. Which GI50 [2] did it give?
**A.** 0.68 nM

**Q.** CC[C@H](C)[C@@H]([C@@H](CC(=O)N1CCC[C@H]1[C@H](OC)[C@@H](C)C(=O)N[C@@H](Cc1c[nH]c2ccccc12)C(N)=O)OC)N(C)C(=O)[C@@H](NC(=O)[C@H](C(C)C)N(C)CCCC(=O)O)C(C)C ({NMeVal(N-(CH2)3COOH)}-V[Dil][Dolaproine]W-NH2) was tested. Which pIC50 [3] did it give?
**A.** 7.80

**Q.** How did the pIC50 [4] turn out when CC[C@H](C)[C@@H]([C@@H](CC(=O)N1CCC[C@H]1[C@H](OC)[C@@H](C)C(=O)N[C@@H](Cc1ccccc1)C(N)=O)OC)N(C)C(=O)[C@@H](NC(=O)[C@@H](NC)C(C)C)[C@H](C)N=[N+]=[N-] (H-[NMeV][Abu(3S-N3)][Dil][Dolaproine]F-NH2) was run?
**A.** 9.22

**Q.** CC[C@H](C)[C@@H]([C@@H](CC(=O)N1CCC[C@H]1[C@H](OC)[C@@H](C)C(=O)N[C@@H](Cc1ccccc1)C(=O)O)OC)N(C)C(=O)[C@@H](NC(=O)[C@H](C(C)C)N(C)C)C(C)C (NMe2Val-V[Dil][Dolaproine]F-OH) was tested. Which pIC50 [5] did it give?
**A.** 6.98

**Q.** How did the GI50 [1] turn out when CC[C@H](C)[C@@H]([C@@H](CC(=O)N1CCC[C@H]1[C@H](OC)[C@@H](C)C(=O)N[C@@H](Cc1ccccc1F)C(=O)O)OC)N(C)C(=O)[C@@H](NC(=O)[C@@H](NC)C(C)C)C(C)C (H-[NMeV]V[Dil][Dolaproine][Phe(2-F)]-OH) was run?
**A.** 81.6 nM

**Q.** With CC[C@H](C)[C@@H]([C@@H](CC(=O)N1CCC[C@H]1[C@H](OC)[C@@H](C)C(=O)N[C@@H](Cc1ccccc1)c1nnc(-c2ccccc2)o1)OC)N(C)C(=O)[C@@H](NC(=O)[C@H](C(C)C)N(C)CCCC(=O)O)C(C)C as the compound, how does the pIC50 [3] read?
**A.** 10.00

**Q.** With CC[C@H](C)[C@@H]([C@@H](CC(=O)N1C[C@@H](O)C[C@H]1[C@H](OC)[C@@H](C)C(=O)NCCc1c(F)cccc1F)OC)N(C)C(=O)[C@@H](NC(=O)[C@H](C(C)C)N(C)C)C(C)C as the compound, how does the GI50 [2] read?
**A.** 0.23 nM

**Q.** What does the source list for CCOP(=O)(OCC)[C@H](Cc1ccccc1)NC(=O)[C@H](C)[C@@H](OC)[C@@H]1CCCN1C(=O)C[C@@H](OC)[C@H]([C@@H](C)CC)N(C)C(=O)[C@@H](NC(=O)[C@H](C(C)C)N(C)C)C(C)C?
**A.** GI50 [6]: 0.09 nM; GI50 [7]: 6 nM

**Q.** CC[C@H](C)[C@@H]([C@@H](CC(=O)N1C[C@@H](OC)C[C@H]1[C@H](OC)[C@@H](C)C(=O)NCCc1ccccc1)OC)N(C)C(=O)[C@@H](NC(=O)[C@H](C(C)C)N(C)C)C(C)C was tested. Which GI50 [2] did it give?
**A.** 0.24 nM

**Q.** With CC[C@H](C)[C@@H]([C@@H](CC(=O)N1[C@H]2C[C@H]2C[C@H]1[C@H](OC)[C@@H](C)C(=O)N[C@@H](Cc1ccccc1)C(=O)O)OC)N(C)C(=O)[C@@H](NC(=O)[C@@H](NC)C(C)C)C(C)C (HELM PEPTIDE1{[meV].V.[CC[C@H](C)[C@@H]([C@@H](CC(=O)[*:2])OC)N(C)[*:1]].[CO[C@H]([C@@H](C)C(=O)[*:2])[C@@H]1C[C@@H]2C[C@@H]2N1[*:1]].F}$$$$V2.0) as the compound, how does the GI50 [1] read?
**A.** 1.11 nM

**Q.** For CC[C@H](C)[C@@H]([C@@H](CC(=O)N1CCC[C@H]1[C@H](OC)[C@@H](C)C(=O)N[C@@H](Cc1ccccc1)C(=O)OC)OC)N(C)C(=O)[C@@H](NC(=O)[C@H](C(C)C)N(C)C)C(C)C (NMe2Val-V[Dil][Dolaproine]F-OMe), which GI50 [5] is on record?
**A.** 0.2 nM

**Q.** How did the pIC50 [3] turn out when CC[C@H](C)[C@@H]([C@@H](CC(=O)N1CCC[C@H]1[C@H](OC)[C@@H](C)C(=O)NC1(C(=O)N2CCCCO2)C[C@@H]1c1ccccc1)OC)N(C)C(=O)[C@@H](NC(=O)[C@H](C(C)C)N(C)C)C(C)C (some centres not stated) was run?
**A.** 9.30

**Q.** How did the pIC50 [3] turn out when CC[C@H](C)[C@@H]([C@@H](CC(=O)N1CCC[C@H]1[C@H](OC)[C@@H](C)C(=O)N[C@H](/C=C/c1ccccc1)Cc1ccccc1)OC)N(C)C(=O)[C@@H](NC(=O)[C@H](C(C)C)N(C)CCCC(=O)O)C(C)C was run?
**A.** 9.52

**Q.** How did the pIC50 [8] turn out when CC[C@H](C)[C@@H]([C@@H](CC(=O)OC(C)(C)C)OC)N(C)C(=O)[C@@H](NC(=O)[C@H](C(C)C)N(C)C)C(C)C was run?
**A.** 8.38

**Q.** How did the pIC50 [3] turn out when CC[C@H](C)[C@@H]([C@@H](CC(=O)N1CCC[C@H]1[C@H](OC)[C@@H](C)C(=O)N[C@@H](Cc1c[nH]c2ccccc12)C(=O)N1CCCCO1)OC)N(C)C(=O)[C@@H](NC(=O)[C@H](C(C)C)N(C)C)C(C)C (NMe2Val-V[Dil][Dolaproine]W-{Oxazinan2yl(1,2)}) was run?
**A.** 9.30
